Entries after “also recorded” stand apart in the source; their conditions may differ.
Tests used:
Salmonella = Salmonella and mammalian microsome assays; cited from earlier work
M3 receptors [1] = target: T1, M3 receptors (Cavia porcellus, UniProt H0W1Z3); assay: Dose response curve of acetylcholine on guinea pig bladder detrusor strips; conditions: 98, 196 and 392×10^−6 moles per ml of bath
T1 construct: from tissue; host or cells: guinea pig longitudinal ileal muscle; guinea pig bladder detrusor strips
Text: (§1) The three doses prepared and applied were 98×10^−6 moles per milliliter of bath concentration; 196×10^−6 moles per milliliter of bath concentration and 392×10^−6 moles per milliliter of bath concentration. For comparative purposes, the three doses of atropine used were 35×10^−6 moles per milliliter of bath concentration; 86×10^−6 moles per milliliter of bath concentration and 173×10^−[…] moles per milliliter of bath concentration.
The longitudinal bladder detrusor strips were suspended under a resting tension (0.5 g) in aerated Tyrode physiological solution. Tension was measured with an isometric force transducer (FT 305), and responses were recorded on a Biodevices Physiograph. Antimuscarinic activity was determined from concentration response curves to acetylcholine in the absence or presence of increasing concentrations of the said compound. Contractile responses were expressed as a percentage of the maximum contraction elicited by acetylcholine in the absence of the said compound.

M2 receptors = target: T2, M2 receptors (Cavia porcellus, UniProt H0VRN8); assay: Dose response curve of acetylcholine on isolated guinea pig atria; conditions: for Inhibitory effect on rate and force of contraction of guinea pig atria (M2 block): dosage range used
T2 construct: The atria beat spontaneously; from tissue; host or cells: isolated guinea pig atria
T2 sequence (H0VRN8 1-466): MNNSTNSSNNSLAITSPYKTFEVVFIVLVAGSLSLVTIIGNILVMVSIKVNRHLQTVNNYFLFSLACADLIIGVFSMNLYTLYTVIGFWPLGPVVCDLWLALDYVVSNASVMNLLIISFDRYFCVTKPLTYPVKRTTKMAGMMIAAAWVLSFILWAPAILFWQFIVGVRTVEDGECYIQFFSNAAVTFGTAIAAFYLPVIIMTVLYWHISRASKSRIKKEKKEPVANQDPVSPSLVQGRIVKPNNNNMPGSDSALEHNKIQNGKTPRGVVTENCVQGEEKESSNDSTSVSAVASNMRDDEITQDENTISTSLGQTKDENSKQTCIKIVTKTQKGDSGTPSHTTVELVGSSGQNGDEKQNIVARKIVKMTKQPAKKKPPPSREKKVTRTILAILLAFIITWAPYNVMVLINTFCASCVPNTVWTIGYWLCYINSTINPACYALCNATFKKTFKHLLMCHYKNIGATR
Description: The in vitro experiments were performed on atria, ileum and bladder tissues of guinea pig. Atria were removed, and one end was tied to an oxygen tube and the other end was fixed to a Force transducer (Model T-305), which is connected to a physiograph (Biodevices Physiograph). The atria beat spontaneously, and after equilibration (30 minutes), resting tension was adjusted to the peak of the length tension curve followed by a re-equilibration period (30 minutes). Cumulative concentration response curves to acetylcholine were obtained before and after addition of increasing concentrations of the compound (doses said in Example 5). Responses were expressed as a percentage of the maximal inhibition of atrial rate induced by acetylcholine in absence of the antagonist (compound).

[2] = rat, in vivo; cited from earlier work
M3 receptors [3] = target: T1, M3 receptors; assay: Dose response curve of acetylcholine on isolated guinea pig ileum; conditions: 98, 196 and 392×10^−6 moles per ml of bath
Text: as §1
The longitudinal ileal muscle was suspended in an organ bath in aerated Tyrode solution. […]. Doses of the compound were as given in Example 5.

M1 receptors = target: T3, M1 receptors (Rattus norvegicus, UniProt P08482); assay: Basal gastric acidity by pyloric ligation in rats; assay type: in vivo; conditions: for % inhibition of gastric acidity: 15 min before pyloric ligation
T3 construct: from tissue; host or cells: living albino rats (stomach)
T3 sequence (P08482 1-460): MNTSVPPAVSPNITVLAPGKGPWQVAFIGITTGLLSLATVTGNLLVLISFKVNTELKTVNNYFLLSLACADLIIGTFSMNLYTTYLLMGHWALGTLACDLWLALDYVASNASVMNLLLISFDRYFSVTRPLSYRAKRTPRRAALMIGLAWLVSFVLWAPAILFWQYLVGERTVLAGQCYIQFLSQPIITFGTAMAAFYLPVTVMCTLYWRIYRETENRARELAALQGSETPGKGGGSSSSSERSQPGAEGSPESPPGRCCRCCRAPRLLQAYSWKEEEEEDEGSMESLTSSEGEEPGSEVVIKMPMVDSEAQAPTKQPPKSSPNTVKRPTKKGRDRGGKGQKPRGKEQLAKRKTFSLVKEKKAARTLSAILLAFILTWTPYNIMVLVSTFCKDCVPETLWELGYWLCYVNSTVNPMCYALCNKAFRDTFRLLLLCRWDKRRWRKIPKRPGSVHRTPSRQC
Description: These activities were tested upon rats. […] For comparative purposes, the doses of atropine used for testing gastric acidity were 0.01 milligram per kilogram of the body weight of rat injected subcutaneously (0.01 mg/kg s.c), 0.05 milligram per kilogram of the body weight of rat injected subcutaneously (0.05 mg/kg s.c), 0.10 milligram per kilogram of the body weight of rat injected subcutaneously (0.10 mg/kg s.c.).
The in vivo experiments for gastric acidity testing were performed by pyloric ligation on rats. Albino rats of either sex weighing 190-250 grams were randomly divided into groups of 6, with a group of 6 rats serving as control. All the rats were starved for 48 hours prior to the experiment. After the first 24 hours, they were given access to 8% sucrose in 0.2% sodium chloride for 8 hours. Water was permitted adlibitum except during the 8 hours of sucrose treatment and 2 hours previous to pyloric ligation.
Basal gastric acidity was determined by pyloric ligation under ether anaesthesia followed by gastric lavage with normal saline. […] Three hours later the animals were killed and the stomach was tied at the oesophageal junction and removed. The contents were collected by cutting along the greater curvature and the free acidity was determined by titration against 0.01 normal NaOH using Topfers reagent as indicator.

T1 sequence (H0W1Z3 1-590): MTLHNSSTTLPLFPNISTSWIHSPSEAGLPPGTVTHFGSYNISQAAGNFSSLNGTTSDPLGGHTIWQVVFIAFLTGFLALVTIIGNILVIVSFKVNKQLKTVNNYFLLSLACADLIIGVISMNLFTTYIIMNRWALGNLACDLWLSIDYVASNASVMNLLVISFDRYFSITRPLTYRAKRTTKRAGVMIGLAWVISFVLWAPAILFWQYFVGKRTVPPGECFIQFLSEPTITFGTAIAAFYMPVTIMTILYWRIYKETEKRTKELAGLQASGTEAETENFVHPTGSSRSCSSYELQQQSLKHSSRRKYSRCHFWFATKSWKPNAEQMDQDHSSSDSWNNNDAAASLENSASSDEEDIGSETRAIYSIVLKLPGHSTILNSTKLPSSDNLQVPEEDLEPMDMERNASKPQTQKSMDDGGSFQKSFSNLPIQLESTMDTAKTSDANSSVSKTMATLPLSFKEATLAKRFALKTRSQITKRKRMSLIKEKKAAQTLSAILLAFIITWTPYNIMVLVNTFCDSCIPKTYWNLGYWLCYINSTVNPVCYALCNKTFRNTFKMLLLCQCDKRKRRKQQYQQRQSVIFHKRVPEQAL

Row | SMILES | Mutagenic effect (Salmonella) | Antagonism of acetylcholine on bladder detrusor strips (M3 receptors [1]) | Inotropic or chronotropic effect on its own on guinea pig atrium (M2 receptors; 20, 40, 196 and 392×10^−6 moles per ml of bath) | Inhibitory effect on rate and force of contraction of guinea pig atria (M2 block) (M2 receptors) | Oral toxicity [2] | Antagonism of acetylcholine contractions of ileum smooth muscle (M3 receptors [3]) | % inhibition of gastric acidity (M1 receptors; rat, 1 mg/kg s.c.) [%] | % inhibition of gastric acidity (M1 receptors; rat, 3 mg/kg s.c., 3 mg/kg) [%] | % inhibition of gastric acidity (M1 receptors; rat, 5 mg/kg s.c., 5 mg/kg) [%] | Effect on basal gastric (free) acidity (M1 receptors; rat, 1, 3 & 5 mg/kg s.c.) | ED50 (M1 receptors; sc, rat, s.c., read-out: ED50 for inhibition of gastric acidity) [mg/kg]
1 | CCCCCCCCCCCCCCCC(=O)OC [methyl palmitate] | devoid of any mutagenic effect | antagonised the effect of acetylcholine in a dose-dependent and competitive manner | did not produce any positive inotropic or chronotropic effect | had no such effect in the dosage range used; also recorded: does not block M2 receptors | nontoxic | antagonised contractions of smooth muscle of the ileum | 50.72 | 55 | 91.5 | decreased free acidity; also recorded: inhibited basal gastric acidity dose dependently | 2.74
2 | CN1[C@@H]2CC[C@H]1C[C@@H](OC(=O)C(CO)c1ccccc1)C2 (stereo partly drawn) [Atropine, reference compound] | – | – | – | inhibitory effect on all the three receptors | – | – | – | – | – | – | –
